Experimental data taken from patent US7053175B1, “Synthetic peptides useful in biological assays for detecting infections caused by group O HIV-1 viruses” (Bio-Rad Pasteur, priority 1997, dated 2006).
No end group written: not given here.

System: serum samples from patients infected with group O HIV-1 retroviruses
Assay: Immunoenzymatic test: Test No. 2 (immunoreactivity with diluted sera)
Format: binding, human
Details: for Number of samples: sera of Table V; for Number of samples / ABSORBANCE (OD): solid phase peptide 2 μg/ml; for ABSORBANCE (OD): cyclized; for immunoreactivity compared with the reference peptides (in words): summary of Tables V and VI
From the text: The serum samples from patients infected with group O HIV-1 retroviruses were obtained by the Yaounde Pasteur Centre in Cameroon and were serotyped group O according to the serological algorithm described in AIDS (1977), 11, pp. 445-453. A genotyped sample (Maryland) is obtained from the United States. These samples were previously diluted in negative human serum at the dilutions given in Table V, in order to have a sufficient volume for the different immunoreactivity tests.
The synthetic peptides used were dissolved in water at a concentration of 1 mg/ml (stock solution). For the solid phase sensitization step (“coating”), the procedure was carried out as described for Example 2.
The serum samples were diluted 1/5 with a skimmed milk solution (citrate buffer supplemented with 0.01% of phenol red, 0.25% of chloroform and 0.25% of Kathon®), deposited in the wells of plates and incubated for 30 min at 40° C.
After washing with a Tris-NaCl buffer solution pH 7.4 containing 0.1% of Tween® 20 and 0.001% of sodium merthiolate, 100 μl of a solution of conjugate consisting of horseradish peroxidase-labelled anti-human IgG and IgM goat antibodies, containing as preservative 0.01% of sodium merthiolate, in solution in a citrate buffer solution supplemented with 30% glycerol and 25% normal foetal calf serum, were added to each well of the plates and then they were incubated for 30 min at 40° C.
After washing with a Tris-NaCl buffer solution pH 7.4 containing 0.1% of Tween® 20 and 0.001% of sodium merthiolate, the colour was developed as described in Example 2.
The relative absorbance (OD) (A490-A620) read in each well is proportional to the immunoreactivity of each peptide. It indicates the ability of each peptide to react with the biological sample with which the test is carried out.
The reactivity of the peptides of the invention, peptides No. 10 (14B), No. 11 (18B), No. 12 (19B), No. 14 (21B), No. 15 (22B), No. 16 (23B) all in cyclized form, was compared with that of three homologous synthetic peptides having, as sequence, a portion of the natural sequence of the envelope (env) of a group O HIV-1 retrovirus. These peptides are two peptides derived from the VAU isolate—the peptide VAU 22 AA and the peptide VAU 35 AA—and the peptide MVP 5180 (designated “MVP 5180” in Table V). The peptides VAU 22 AA and VAU 35 AA (whose structure is indicated in Example 2) and the peptide MVP 5180 comprise an immunodominant epitope of gp41.
All these peptides were used in cyclized form. The sequence of the MVP 5180 peptide is the following:
For each peptide tested, the samples were arranged into four classes (a, b, c and d) corresponding to various levels of relative absorbance read at the wavelengths A492-A620: • for a: OD<0.100, • for b: 0.100<OD<0.500, • for c: 0.500<OD<1.000, • for d: OD>1.000, thus making it possible to evaluate the degree of immunoreactivity of the peptides.

Sequence	Number of samples (CLASS A (a: OD<0.100))	Number of samples (CLASS B (b: 0.100<OD<0.500))	Number of samples (CLASS C (c: 0.500<OD<1.000))	Number of samples (CLASS D (d: OD>1.000))	ABSORBANCE (OD) (serum 258 OUDI at 1/100)	ABSORBANCE (OD) (serum 625 at 1/50)	ABSORBANCE (OD) (serum 3600 at 1/100)	ABSORBANCE (OD) (serum 3613 at ¼00)	ABSORBANCE (OD) (serum 3653 at 1/10)	ABSORBANCE (OD) (serum 4280 at 1/50)	ABSORBANCE (OD) (serum 6111 at 1/100)	ABSORBANCE (OD) (serum DJOU at 1/100)	ABSORBANCE (OD) (serum DO15 at 1/100)	ABSORBANCE (OD) (serum MBASSI at 1/100)	ABSORBANCE (OD) (serum Maryland at ¼00)	ABSORBANCE (OD) (serum NGO at 1/50)	ABSORBANCE (OD) (serum NJEM at 1/100)	ABSORBANCE (OD) (serum WANG at 1/50)	immunoreactivity compared with the reference peptides (in words)
ALETLLQNQQLLNIWGCRGRLVCYTSVRWNET [PEPTIDE No. 12 (19B)]	0	11	2	1	0.226	0.264	0.249	0.773	0.247	0.201	0.202	0.419	1.286	0.747	0.285	0.193	0.391	0.124	
LNQQRLLNSWGCKGRLVCYTSV [PEPTIDE No. 14 (21B)]	1	3	4	6	0.764	2.045	0.716	1.508	0.072	0.286	0.850	1.998	3.357	2.134	0.734	0.157	0.277	2.397	most immunoreactive
RLNSWGCKGRLVCYTSV [PEPTIDE No. 16 (23B)]	2	2	1	9	1.692	1.791	0.933	1.679	0.406	0.033	1.009	2.166	3.038	2.683	1.229	0.110	0.025	1.290	most immunoreactive
RLQALETLIQNQQRLNLWGCKGKLICYTSVKWNTS (cysteine pairing not given here) [MVP 5180, reference compound]	1	12	1	0	0.116	0.202	0.206	0.478	0.401	0.382	0.226	0.203	0.673	0.248	0.241	0.184	0.146	0.075	
ALETLLQNQQLLNSWGCRGRLVCYTSVRWNET [PEPTIDE No. 11 (18B)]	0	9	4	1	0.373	0.338	0.360	0.837	0.337	0.686	0.348	0.482	0.859	1.150	0.370	0.335	0.811	0.234	
LLNSWGCKGRLVCYTS [PEPTIDE No. 10 (14B)]	3	2	5	4	0.587	0.838	0.482	1.108	0.347	0.022	0.596	1.268	1.613	1.217	0.524	0.067	0.032	0.698	
RALETLLNQQRLLNSWGCKGRLVCYTSV [PEPTIDE No. 15 (22B)]	0	2	4	8	1.184	2.122	0.801	1.627	0.380	0.689	1.207	2.088	3.693	2.010	0.844	0.315	0.939	2.680	most immunoreactive
